Results reported in ChEMBL document CHEMBL1138566, “Synthesis of novel benzo[h]quinolines: wound healing, antibacterial, DNA binding and in vitro antioxidant activity” (Eur J Med Chem, 2009).
In brackets after ≈: the same amount, converted by molar mass. Activity calls are given as the source filed them. The calls are words filed in the database; no cut-off is given here.

Experiments:
Rattus norvegicus [1] = test: Wound healing activity in Wistar albino rat dorsal back excision wound model assessed as wound closure applied topically as cream base ointment over 100/500 mm'2 scar measured after 4 days; format: functional
[2] = Antioxidant activity assessed as inhibition of phenazine methosulphate-NADH coupling reaction-induced superoxide anion production at 60 ug/ml; format: functional; design: scale not given: the % may be the effect or the level left
[3] = Antioxidant activity assessed as hydrogen peroxide scavenging activity at 60 ug/ml by spectrophotometry; format: functional
Rattus norvegicus [4] = test: Wound healing activity in Wistar albino rat dorsal back excision wound model assessed as wound closure applied topically as cream base ointment over 100/500 mm'2 scar measured after 16 days; format: functional
Pseudomonas aeruginosa [5] = test: Antibacterial activity against Pseudomonas aeruginosa ATCC 20852 at 10 mg/ml after 48 hrs by agar well diffusion method; format: functional; settings: ATCC 20852, 48 h, read-out: DIZ
Rattus norvegicus [6] = test: Wound healing activity in Wistar albino rat dorsal back incision wound model assessed as tensile strength applied topically as cream base ointment over 100/500 mm'2 scar by tensiometry; format: functional
[7] = Antioxidant activity assessed as increase in reducing power at 20 to 60 ug/mL; format: functional
Escherichia coli [8] = test: Antibacterial activity against Escherichia coli at 10 mg/ml after 48 hrs by agar well diffusion method; format: functional; settings: read-out: DIZ
Rattus norvegicus [9] = test: Wound healing activity in Wistar albino rat dorsal back excision wound model assessed as epithelization period applied topically as cream base ointment over 100/500mm'2 scar; format: functional
[10] = Antioxidant activity assessed as hydrogen peroxide scavenging activity by spectrophotometry; format: functional
Streptococcus pyogenes [11] = test: Antibacterial activity against Streptococcus pyogenes NCIM 2608 at 10 mg/ml after 48 hrs by agar well diffusion method; format: functional; settings: NCIM 2608, 48 h, read-out: DIZ
Nucleic Acid [12] = test: Intrinsic binding affinity to DNA assessed as hypochromism by absorption spectral analysis; format: nucleic-acid assay
Rattus norvegicus [13] = test: Wound healing activity in Wistar albino rat dorsal back excision wound model assessed as wound closure applied topically as cream base ointment over 100/500 mm'2 scar measured after 12 days; format: functional
Streptococcus pyogenes [14] = test: Antibacterial activity against Streptococcus pyogenes NCIM 2608 after 48 hrs by microdilution method; format: functional; settings: NCIM 2608, 48 h
Rattus norvegicus [15] = test: Wound healing activity in Wistar albino rat dorsal back excision wound model assessed as wound closure applied topically as cream base ointment over 100/500 mm'2 scar measured after 8 days; format: functional
Klebsiella pneumoniae [16] = test: Antibacterial activity against Klebsiella pneumoniae MTCC 618 after 48 hrs by microdilution method; format: functional; settings: MTCC 618, 48 h
Calf thymus DNA [17] = test: Binding affinity to calf thymus DNA assessed as melting temperature; format: nucleic-acid assay; settings: Bos taurus
Nucleic Acid [18] = test: Binding affinity to DNA assessed as reduction of Uv-vis spectra absorption at 312 nm wavelength at 0.5 uM by DNA intercalation assay; format: nucleic-acid assay; design: scale not given: the % may be the effect or the level left
Bacillus subtilis [19] = test: Antibacterial activity against Bacillus subtilis NCIM 2010 at 10 mg/ml after 48 hrs by agar well diffusion method; format: functional; settings: NCIM 2010, 48 h, read-out: DIZ
[20] = test system: Radical scavenging activity; test: Antioxidant activity assessed as DPPH radical scavenging activity; format: functional
Escherichia coli [21] = test: Antibacterial activity against Escherichia coli after 48 hrs by microdilution method; format: functional
Calf thymus DNA [22] = test: Binding affinity to calf thymus DNA assessed as increase in viscosity at 100 uM; format: nucleic-acid assay; settings: Bos taurus
Nucleic Acid [23] = test: Intrinsic binding affinity to DNA by absorption spectral analysis; format: nucleic-acid assay
Bacillus subtilis [24] = test: Antibacterial activity against Bacillus subtilis NCIM 2010 by microdilution method; format: functional
Staphylococcus aureus [25] = test: Antibacterial activity against Staphylococcus aureus ATCC 29737 after 48 hrs by microdilution method; format: functional; settings: ATCC 29737, 48 h
Staphylococcus aureus [26] = test: Antibacterial activity against Staphylococcus aureus ATCC 29737 at 10 mg/ml after 48 hrs by agar well diffusion method; format: functional; settings: ATCC 29737, 48 h, read-out: DIZ
Klebsiella pneumoniae [27] = test: Antibacterial activity against Klebsiella pneumoniae MTCC 618 at 10 mg/ml after 48 hrs by agar well diffusion method; format: functional; settings: MTCC 618, 48 h, read-out: DIZ
Pseudomonas aeruginosa [28] = test: Antibacterial activity against Pseudomonas aeruginosa ATCC 20852 after 48 hrs by microdilution method; format: functional; settings: ATCC 20852, 48 h
Rattus norvegicus [29] = test: Wound healing activity in Wistar albino rat dorsal back excision wound model assessed as wound closure applied topically as 1 %W/W gel base ointment measured after 4 days; format: functional
Rattus norvegicus [30] = test: Wound healing activity in Wistar albino rat dorsal back excision wound model assessed as wound closure applied topically as 1 %W/W gel base ointment measured after 8 days; format: functional
Rattus norvegicus [31] = test: Wound healing activity in Wistar albino rat dorsal back excision wound model assessed as wound closure applied topically as 1 %W/W gel base ointment measured after 12 days; format: functional, organism-based
Rattus norvegicus [32] = test: Wound healing activity in Wistar albino rat dorsal back excision wound model assessed as wound closure applied topically as 1 %W/W gel base ointment measured after 16 days; format: functional
Rattus norvegicus [33] = test: Wound healing activity in Wistar albino rat dorsal back excision wound model applied topically as 1 %W/W gel base ointment measured after 18 days; format: functional
Nucleic Acid [34] = test: Binding affinity to DNA assessed as reduction of Uv-vis spectra absorption at 293 nm wavelength at 0.5 uM by DNA intercalation assay; format: nucleic-acid assay; design: scale not given: the % may be the effect or the level left
Rattus norvegicus [35] = test: Wound healing activity in Wistar albino rat dorsal back excision wound model applied topically as cream base ointment over 100/500 mm'2 scar measured after 18 days; format: functional
Staphylococcus aureus [36] = test: microbe, parasite or virus in culture; settings: ATCC 29737, 48 h, read-out: DIZ
Description: Antibacterial activity against Staphylococcus aureus ATCC 29737 at 10 ug/ml after 48 hrs by agar well diffusion method

Pseudomonas aeruginosa [37] = test: microbe, parasite or virus in culture; settings: ATCC 20852, 48 h, read-out: DIZ
Description: Antibacterial activity against Pseudomonas aeruginosa ATCC 20852 at 10 ug/ml after 48 hrs by agar well diffusion method

Streptococcus pyogenes [38] = test: microbe, parasite or virus in culture; settings: NCIM 2608, 48 h, read-out: DIZ
Description: Antibacterial activity against Streptococcus pyogenes NCIM 2608 at 10 ug/ml after 48 hrs by agar well diffusion method

Escherichia coli [39] = test: Antibacterial activity against Escherichia coli at 10 ug/ml after 48 hrs by agar well diffusion method; settings: read-out: DIZ
Klebsiella pneumoniae [40] = test: microbe, parasite or virus in culture; settings: MTCC 618, 48 h, read-out: DIZ
Description: Antibacterial activity against Klebsiella pneumoniae MTCC 618 at 10 ug/ml after 48 hrs by agar well diffusion method

Bacillus subtilis [41] = test: microbe, parasite or virus in culture; settings: NCIM 2010, 48 h, read-out: DIZ
Description: Antibacterial activity against Bacillus subtilis NCIM 2010 at 10 ug/ml after 48 hrs by agar well diffusion method

Structure (SMILES)	Activity (Rattus norvegicus [1]) [%]	Activity [2] [%]	Activity [3]	Activity (Rattus norvegicus [4]) [%]	zone of inhibition at 10000 µg/mL (Pseudomonas aeruginosa [5]) [mm]	Activity (Rattus norvegicus [6]) [g]	Activity [7]	zone of inhibition at 10000 µg/mL (Escherichia coli [8]) [mm]	Activity (Rattus norvegicus [9]) [days]	Activity [10]	zone of inhibition at 10000 µg/mL (Streptococcus pyogenes [11]) [mm]	Activity (Nucleic Acid [12]) [%]	Activity (Rattus norvegicus [13]) [%]	MIC (Streptococcus pyogenes [14]) [µg/mL]	Activity (Rattus norvegicus [15]) [%]	MIC (Klebsiella pneumoniae [16]) [µg/mL]	Activity [20] [%]	MIC (Escherichia coli [21]) [µg/mL]	MIC (Bacillus subtilis [24]) [µg/mL]	MIC (Staphylococcus aureus [25]) [µg/mL]	further results
O=Cc1cc2ccc3ccccc3c2nc1[SeH]	53.65	76	74%	100	12.2	582.33	Active	17.2	16	Dose-dependent effect	19.5	25.1	95.7	12.5 (≈ 43.7 µM)	85.26	25 (≈ 87.4 µM)	61	25 (≈ 87.4 µM)	16.2 (≈ 56.8 µM)	8 (≈ 28 µM)	Tm (Calf thymus DNA [17]): 58 °C; Activity (Nucleic Acid [18]): 18.2%; zone of inhibition at 10000 µg/mL (Bacillus subtilis [19]): 20.6 mm; Activity (Calf thymus DNA [22]): Active; Kb (Nucleic Acid [23]): 3.8 ×10⁶ /M; zone of inhibition at 10000 µg/mL (Staphylococcus aureus [26]): 22.8 mm; zone of inhibition at 10000 µg/mL (Klebsiella pneumoniae [27]): 14.5 mm; MIC (Pseudomonas aeruginosa [28]): 16 µg/mL (≈ 55.9 µM)
Cc1cc(C(C)(C)C)c(O)c(C(C)(C)C)c1		51	Active														48				
NC(=O)N/N=C/c1ccc([N+](=O)[O-])o1 [NITROFURAZONE]						599			14												Activity (Rattus norvegicus [29]): 55.68%; Activity (Rattus norvegicus [30]): 87.21%; Activity (Rattus norvegicus [31]): 97.68%; Activity (Rattus norvegicus [32]): 100%
O=Cc1cc2ccc3ccccc3c2nc1S	45.35	65	68%	96.24	11.6	544.83	Active	12.3	18	Dose-dependent effect	17.4	20.5	85.94	12.5 (≈ 52.2 µM)	75.63	12.5 (≈ 52.2 µM)	55	32 (≈ 134 µM)	16.2 (≈ 67.9 µM)	11 (≈ 46 µM)	Activity (Rattus norvegicus [33]): 95.71%; Activity (Nucleic Acid [34]): 20.3%; Tm (Calf thymus DNA [17]): 60 °C; zone of inhibition at 10000 µg/mL (Bacillus subtilis [19]): 15.2 mm; Activity (Calf thymus DNA [22]): Active; Kb (Nucleic Acid [23]): 2.7 ×10⁵ /M; Activity (Rattus norvegicus [35]): 100%; zone of inhibition at 10000 µg/mL (Staphylococcus aureus [26]): 19.4 mm; zone of inhibition at 10000 µg/mL (Klebsiella pneumoniae [27]): 13.6 mm; MIC (Pseudomonas aeruginosa [28]): 16 µg/mL (≈ 66.9 µM)
COc1ccc(O)c(C(C)(C)C)c1.COc1ccc(O)cc1C(C)(C)C		81	Active														64				
O=C(O)c1cn(C2CC2)c2cc(N3CCNCC3)c(F)cc2c1=O [CIPROFLOXACIN]														6.25 (≈ 18.9 µM)		12.5 (≈ 37.7 µM)		6.5 (≈ 19.6 µM)	12.5 (≈ 37.7 µM)	6.75 (≈ 20.4 µM)	zone of inhibition at 10 µg/mL (Staphylococcus aureus [36]): 21.4 mm; zone of inhibition at 10 µg/mL (Pseudomonas aeruginosa [37]): 23.3 mm; zone of inhibition at 10 µg/mL (Streptococcus pyogenes [38]): 20.8 mm; zone of inhibition at 10 µg/mL (Escherichia coli [39]): 19.2 mm; zone of inhibition at 10 µg/mL (Klebsiella pneumoniae [40]): 20.1 mm; zone of inhibition at 10 µg/mL (Bacillus subtilis [41]): 21.3 mm
